# Target: T1, hα7-wt nAChR stably expressed in the GH4C1 cell line (Homo sapiens, UniProt P36544)
# T1 construct: expressed in transfected cells
# Assay: Ca2+ flux imaging (FLIPR) of PAM activity with choline as agonist
# Format: cell-based
# Details: efficacy relative to 100 μM choline alone (defined as 1); peak fluorescence, fluo-4AM; compounds tested 0.1 μM to 30 μM, efficacy criterion at 10 μM
# Text: Stable expression in mammalian cells in general and rat GH4C1 cells in particular, of cDNA clones encoding the human α7 wild-type sequence (hα7-wt nAChR) and in which the coding region is placed downstream of a promoter results in the appearance of functional α7 nAChRs on the surface of the mammalian cells. This technique has provided a powerful means of assessing the function of α7 wild-type protein. Given the fact that the cation permeability of the α7 nicotinic receptor preferentially favours calcium, fluorescent imaging of Ca^2+ flux through the hα7-wt nAChR stably expressed in the GH4C1 cell line was used as a first means of assaying modulator activity of the compounds of the present invention.
# a) Assay Buffer • Hanks buffered saline solution (HBSS, Invitrogen, Belgium), supplemented with 10 mM HEPES (Invitrogen, Belgium), CaCl2 to a final concentration of 5 mM, 0.1% Bovine serum albumin (Sigma-Aldrich NV, Belgium), 2.5 mM probenecid (Sigma-Aldrich NV, Belgium).
# b) Calcium-Sensitive Dye—Fluo-4AM • Fluo-4AM (Molecular Probes, USA) was dissolved in DMSO containing 10% Pluronic acid (Molecular Probes, USA) to give a stock solution which was aliquoted and could be stored at −20° C. until later use. On the day of the experiment Fluo-4AM stock was defrosted and diluted in DMEM/F12 (Invitrogen, Belgium) containing 2.5 mM probenicid and 0.1% BSA to give a final concentration of 2 μM.
# c) 96-well Plates • BD Biocoat poly-D-lysine 96-well black/clear bottom plates (BD Biosciences, Belgium)
# d) Calcium Flux Measurement • A Fluorimetric Imaging Plate Reader (FLIPR, Molecular Devices Corporation, Sunnyvale, USA) was used to measure intracellular free-calcium flux signals
# Monolayers of hα7-wt nAChR-expressing cells were grown in multi-well plates, in particular black-sided, transparent bottomed 96 well plates coated with poly-D-lysine for 24 hours prior to loading with a fluorescent calcium indicator, in a particular embodiment loading with fluo-3 or fluo-4AM for up to 90 minutes, in an even more particular embodiment loading with fluo-4AM for up to 90 minutes, and in a preferred embodiment loading with fluo-4AM for 60 minutes.
# In a particular embodiment, the α7 nicotinic receptor agonist was choline, a more particular embodiment choline applied at a sub-maximal concentration of 100 μM.
# A control response to choline was calculated on each plate from the difference in peak fluorescence in wells receiving either choline or assay buffer alone. Compounds of the present invention were tested at a concentration range from 0.1 μM to 30 μM.
# The activity ranges are defined as follows; A denotes an activity range from 1.1 till 1.5, B denotes an activity range from 1.5 till 2.0, C denotes an activity range from 2.0 till 3.0, D denotes an activity range from 3.0 till 4.5 and E denotes an efficacy from at least 4.5.
# T1 sequence (P36544 23-502): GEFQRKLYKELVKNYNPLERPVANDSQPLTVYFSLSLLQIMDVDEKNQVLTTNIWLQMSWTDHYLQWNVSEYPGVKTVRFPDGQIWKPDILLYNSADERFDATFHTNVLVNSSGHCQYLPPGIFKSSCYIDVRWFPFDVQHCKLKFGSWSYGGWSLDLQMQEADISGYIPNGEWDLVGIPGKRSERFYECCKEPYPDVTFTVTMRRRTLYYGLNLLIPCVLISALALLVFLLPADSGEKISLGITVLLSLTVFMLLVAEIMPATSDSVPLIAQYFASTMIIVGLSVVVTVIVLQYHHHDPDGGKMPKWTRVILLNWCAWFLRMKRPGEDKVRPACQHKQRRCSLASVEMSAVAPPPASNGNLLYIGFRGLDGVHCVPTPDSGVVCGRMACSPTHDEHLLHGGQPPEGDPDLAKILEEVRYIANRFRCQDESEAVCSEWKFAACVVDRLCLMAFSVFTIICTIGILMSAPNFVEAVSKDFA
row,SMILES,Activity Range
1,"COc1cc(OC)c(Nc2nc(-c3ccc4c(c3)OCCO4)c(CC(N)=O)s2)cc1Cl [Compound 96, 2-[(5-chloro-2,4-dimethoxyphenyl)amino]-4-(2,3-dihydro-1,4-benzodioxin-6-yl)-5-thiazoleacetamide]",E (E denotes an efficacy from at least 4.5)
2,CCOC(=O)c1sc(Nc2ccc(OC)cc2)nc1C [Compound 144],E (E denotes an efficacy from at least 4.5)
3,FC(F)(F)c1cc(Nc2nc(-c3cnc4ccccn34)cs2)ccc1Cl [Compound 54],A (A denotes an activity range from 1.1 till 1.5)
4,CC(=O)NCc1sc(Nc2ccc(F)c(C(F)(F)F)c2)nc1-c1cccnc1 [Compound 32],C (C denotes an activity range from 2.0 till 3.0)
5,Fc1ccc(Nc2nc(-c3cccnc3)c(F)s2)cc1C(F)(F)F [Compound 81],C (C denotes an activity range from 2.0 till 3.0)
6,Fc1ccc(Nc2nc(-c3cccnc3)c(Br)s2)cc1C(F)(F)F [Compound 84],C (C denotes an activity range from 2.0 till 3.0)
7,"NC(=O)Cc1sc(Nc2cccc(C(F)(F)F)c2)nc1-c1ccc(Cl)cc1Cl [Compound 18, 2-[4-(2,4-Dichloro-phenyl)-2-(3-trifluoromethyl-phenylamino)-thiazol-5-yl]-acetamide]",B (B denotes an activity range from 1.5 till 2.0)
8,Clc1ccc(Nc2nc(-c3cnc4ccccn34)cs2)cc1 [Compound 53],D (D denotes an activity range from 3.0 till 4.5)
9,COc1cc(OC)c(Nc2nc(-c3ccc4c(c3)OCCO4)c(CC#N)s2)cc1Cl [int. 20],E (E denotes an efficacy from at least 4.5)
10,CCOC(=O)c1sc(Nc2cc(Cl)ccc2Cl)nc1C(F)F [Compound 153],E (E denotes an efficacy from at least 4.5)
11,Clc1ccc(Nc2nc(-c3cnc4cnccn34)cs2)cc1 [Compound 75],C (C denotes an activity range from 2.0 till 3.0)
12,Cc1sc(Nc2cccc(C(F)(F)F)c2)nc1-c1cccnc1 [Compound 101],D (D denotes an activity range from 3.0 till 4.5)
13,COc1cc(OC)c(Nc2nc(-c3ccncc3)c(CN3CCCC3)s2)cc1Cl [Compound 99],D (D denotes an activity range from 3.0 till 4.5)
14,Cc1ccc(Nc2nc(-c3cccnc3)c(C)s2)cc1 [Compound 138],E (E denotes an efficacy from at least 4.5)
15,COc1ccc(Nc2nc(-c3cnc4ccccn34)cs2)cc1OC [Compound 55],B (B denotes an activity range from 1.5 till 2.0)
16,COc1ccc(OC)c(-c2csc(Nc3ccccc3Cl)n2)c1 [Compound 43],B (B denotes an activity range from 1.5 till 2.0)
17,Cc1sc(Nc2ccc(C(F)(F)F)cc2)nc1-c1cccnc1 [Compound 86],D (D denotes an activity range from 3.0 till 4.5)
18,COc1ccc(-c2csc(Nc3ccccc3OC)n2)c(OC)c1 [Compound 38],D (D denotes an activity range from 3.0 till 4.5)
19,Cc1cccc(Nc2nc(-c3cnc4ccccn34)c(F)s2)c1 [Compound 82],B (B denotes an activity range from 1.5 till 2.0)
20,c1cn2c(-c3csc(Nc4ccc5c(c4)CCO5)n3)cnc2s1 [Compound 60],B (B denotes an activity range from 1.5 till 2.0)
21,COc1ccc(-c2csc(Nc3ccc(Cl)cc3Cl)n2)c(OC)c1 [Compound 41],A (A denotes an activity range from 1.1 till 1.5)
22,COc1ccc(Nc2nc(C(F)(F)F)c(CO)s2)cc1 [Compound 118],E (E denotes an efficacy from at least 4.5)
23,"CNC(=O)c1sc(Nc2cc(Cl)c(OC)cc2OC)nc1-c1ccc(F)c(F)c1 [Compound 107, 2-[(5-chloro-2,4-dimethoxyphenyl)amino]-4-(3,4-difluorophenyl)-N-methyl-5-thiazolecarboxamide]",E (E denotes an efficacy from at least 4.5)
24,COC(=O)c1sc(Nc2cc(Cl)ccc2Cl)nc1C(C)C [Compound 149],E (E denotes an efficacy from at least 4.5)

row,SMILES,Activity Range
1,COc1ccc(OC)c(-c2csc(Nc3ccc(Cl)cc3Cl)n2)c1 [Compound 36],C (C denotes an activity range from 2.0 till 3.0)
2,Fc1sc(Nc2cccc(C(F)(F)F)c2)nc1-c1cnc2ccccn12 [Compound 80],C (C denotes an activity range from 2.0 till 3.0)
3,COc1ccc(Nc2nc(-c3ccncc3)c(CO)s2)c(OC)c1 [Compound 123],D (D denotes an activity range from 3.0 till 4.5)
4,FC(F)(F)c1cncc(Nc2nc(-c3cnc4ccccn34)cs2)c1 [Compound 47],C (C denotes an activity range from 2.0 till 3.0)
5,CCCc1nc(Nc2cccc(C(F)(F)F)c2)sc1C(=O)OCC [Compound 155],E (E denotes an efficacy from at least 4.5)
6,COc1ccc(Nc2nc(-c3cnc4ccccn34)cs2)c(OC)c1 [Compound 50],D (D denotes an activity range from 3.0 till 4.5)
7,FC(F)(F)c1ccc(Nc2nc(-c3cccnc3)cs2)cn1 [Compound 65],C (C denotes an activity range from 2.0 till 3.0)
8,COc1cc(OC)c(Nc2nc(-c3ccc(F)c(F)c3)c(CC(N)=O)s2)cc1Cl [Compound 130],E (E denotes an efficacy from at least 4.5)
9,Fc1cccc(-c2nc(Nc3cccc(C(F)(F)F)c3)sc2F)c1 [Compound 7],C (C denotes an activity range from 2.0 till 3.0)
10,COc1ccc(Nc2nc(-c3cc(Cl)c(OC)cc3OC)c(CO)s2)c(OC)c1 [Compound 126],E (E denotes an efficacy from at least 4.5)
11,Brc1ccc(Nc2nc(-c3cccnc3)cs2)cn1 [Compound 64],D (D denotes an activity range from 3.0 till 4.5)
12,"N#CCc1sc(Nc2cccc(C(F)(F)F)c2)nc1-c1ccc(Cl)cc1Cl [Compound 23, [4-(2,4-Dichloro-phenyl)-2-(3-trifluoromethyl-phenylamino)-thiazol-5-yl]-acetonitrile]",D (D denotes an activity range from 3.0 till 4.5)
13,COCCc1nc(Nc2cccc(C(F)(F)F)c2)sc1C(=O)OC [Compound 159],E (E denotes an efficacy from at least 4.5)
14,Cc1cccc(Nc2nc(-c3cccnc3)c(Cl)s2)c1 [Compound 94],D (D denotes an activity range from 3.0 till 4.5)
15,"CC(C)NC(=O)Cc1sc(Nc2cc(Cl)ccc2Cl)nc1-c1ccncc1 [Compound 161, 2-[(2,5-dichlorophenyl)amino]-N-(1-methylethyl)-4-(4-pyridinyl)-5-thiazoleacetamide]",E (E denotes an efficacy from at least 4.5)
16,Cc1cccc(Nc2nc(-c3cnc4sccn34)cs2)c1 [Compound 59],B (B denotes an activity range from 1.5 till 2.0)
17,COc1ccc(Nc2nc(-c3ccccc3)c(Br)s2)cc1 [Compound 93],E (E denotes an efficacy from at least 4.5)
18,"Cc1cc(C(=O)NCc2sc(Nc3cccc(C(F)(F)F)c3)nc2-c2cccnc2)no1 [Compound 108, 5-methyl-N-[[4-(3-pyridinyl)-2-[[3-(trifluoromethyl)phenyl]amino]-5-thiazolyl]methyl]-3-isoxazolecarboxamide]",E (E denotes an efficacy from at least 4.5)
19,"CCOC(=O)c1sc(Nc2ccc(Cl)cc2Cl)nc1-c1ccccc1 [int. 6, 2-(2,4-Dichloro-phenylamino)-4-phenyl-thiazole-5-carboxylic acid ethyl ester]",E (E denotes an efficacy from at least 4.5)
20,CCOC(=O)c1sc(Nc2ccc(OC)cc2)nc1C1CCCN(C(=O)OCc2ccccc2)C1 (stereo not drawn) [Compound 104],E (E denotes an efficacy from at least 4.5)
21,COc1ccc(Nc2nc(-c3ccccc3)c(CO)s2)cc1 [Compound 127],E (E denotes an efficacy from at least 4.5)
22,CCOC(=O)c1sc(Nc2cc(Cl)ccc2Cl)nc1C1CC1 [Compound 152],E (E denotes an efficacy from at least 4.5)
23,CSc1cccc(Nc2nc(-c3cccnc3)c(C)s2)c1 [Compound 141],C (C denotes an activity range from 2.0 till 3.0)
24,"COc1ccc(Nc2nc(-c3ccc4c(c3)OCCO4)c(CO)s2)c(OC)c1 [Compound 95, 4-(2,3-dihydro-1,4-benzodioxin-6-yl)-2-[(2,4-dimethoxyphenyl)amino]-5-thiazolemethanol]",E (E denotes an efficacy from at least 4.5)

# Source: US9388175B2, “2-aniline-4-aryl substituted thiazole derivatives” (Janssen Pharmaceutica N.V., priority 2005, dated 2016)
